Test results reported in patent US20100186098A1, “TRANSGENIC ANIMAL MODELS OF PARKINSON'S DISEASE” (CORNELL UNIVERSITY, priority 2007, published 2010).

Experiments:
Type in all cases: in vivo, mouse
Settings in all cases: intraperitoneal; L-dopa 2 and 20 mg/kg with benserazide, tested 40 minutes after injection; apomorphine 10 mg/kg, tested 5 minutes after
hR1441G LRRK2 mice [1] = assay: Home cage activity test, pharmacological rescue
Protocol: (§1) hR1441G LRRK2 mice and WT littermates were kept in a 12:12 hour light/dark cycle in a temperature and humidity controlled room. All behavioral tests were conducted in the dark phase after two hours of the light/dark switch. In home cage activity test, hR1441G LRRK2 mice and wild type littermates were video taped in home cage for spontaneous ambulatory activity without any disturbance. In cylinder test, hR1441G LRRK2 mice were individually transferred into a 12 cm diameter cylinder and video taped with a reflective mirror for 5 minutes. Vertical rearing and horizontal limb steps were counted. In open field test, mice were transferred into a 45 cm×45 cm box for 10 minutes, video taped and analyzed by Ethovision, 3.0 from Noldus. The locomotor activity was measured by total distance and the number of tiles that the mice traveled.
(§2) To address whether the loss of movement in hR1441G LRRK2 mice originated from a defect in the dopaminergic system, a pharmacological approach was applied. hR1441G LRRK2 mice and wild type littermates were injected with saline control or methyl L-dopa hydrochloride (Sigma, St. Louis, USA) in 0.9% NaCl with benserazide 6.5 mg/kg (Sigma). Two dosages of methyl L-dopa hydrochloride (2 mg/kg and 20 mg/kg) were tested. 0.3 ml of intraperitoneal injections was administered to each animal. Behavioral testing were performed 40 minutes after the injections. […]

hR1441G LRRK2 mice [2] = assay: Open field test, pharmacological rescue
Protocol: as §1, §2

[3] = tested on: hR1441G LRRK2 BAC mice (TG); assay: Cylinder test (rearing), pharmacological rescue
Protocol: FIGS. 9A-9B illustrate robust locomotor deficit in hR1441G LRRK2 BAC mice was rescued by L-Dopa and apomorphine. Wild type littermates (WT) and hR1441G LRRK2 BAC mice (TG) were tested for 3 min in the cylinder test. Rearing was counted as an indication of motor activity. (9A) An age dependent decline in rearing was detected. At 3, 6 and 10 months of age, WT mice reared an average 50.4±SE2.13, 51.4±SE1.28, 50.2.4±SE2.13 times, while TG mice reared 49.4±SE2.13, […] and zero times respectively. At 6 and 10 months of age, TG mice had significant reductions (P<0.005, P<0.001 respectively). (9B) This robust deficit in TG mice was rescued by 20 mg/kg L-Dopa with […] Benseramide. In saline injection controls, WT and TG mice reared 50.4±SE2.48 and 0.8±SE0.37 in 3 minutes, whereas in L-dopa injection, WT and TG mice reared 47.2±SE1.65 and 28.4±SE1.43.
hR1441G LRRK2 mice and WT littermates were kept in a 12:12 hour light/dark cycle in a temperature and humidity controlled room. All behavioral tests were conducted in the dark phase after two hours of the light/dark switch. […] Vertical rearing and horizontal limb steps were counted. In open field test, mice were transferred into a 45 cm×45 cm box for 10 minutes, video taped and analyzed by Ethovision, 3.0 from Noldus. The locomotor activity was measured by total distance and the number of tiles that the mice traveled. […]

CN1CCc2cccc3c2[C@H]1Cc1ccc(O)c(O)c1-3 [apomorphine]
significantly rescued: Rescue from motor deficits in home cage activities (hR1441G LRRK2 mice [1]) | Rescue from motor deficits in the open field test (hR1441G LRRK2 mice [2]) | Rescue from motor deficits in the cylinder test [3]
